Calls of active or inactive are those of the source. Rule as the data show it, for most assays here: actives have a measured Kd and inactives only a lower limit.
How the values were obtained:
[1] = molecular target: T1, Serine/threonine-protein kinase Chk1 (Homo sapiens, UniProt O14757)
T1 sequence (O14757 whole entry): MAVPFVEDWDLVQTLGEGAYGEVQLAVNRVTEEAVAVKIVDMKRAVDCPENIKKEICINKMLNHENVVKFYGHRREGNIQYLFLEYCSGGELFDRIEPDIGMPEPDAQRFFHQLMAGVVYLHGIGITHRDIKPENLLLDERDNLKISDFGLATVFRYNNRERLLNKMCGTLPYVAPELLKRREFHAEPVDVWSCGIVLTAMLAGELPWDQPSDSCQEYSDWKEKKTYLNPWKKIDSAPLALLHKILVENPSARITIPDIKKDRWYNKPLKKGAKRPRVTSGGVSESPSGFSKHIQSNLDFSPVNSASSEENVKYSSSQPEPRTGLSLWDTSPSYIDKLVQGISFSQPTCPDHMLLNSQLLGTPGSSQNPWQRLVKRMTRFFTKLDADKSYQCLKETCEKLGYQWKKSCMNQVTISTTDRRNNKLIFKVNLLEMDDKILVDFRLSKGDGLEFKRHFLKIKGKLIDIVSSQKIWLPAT

[2] = molecular target: T2, MAP kinase-activated protein kinase 5 (Homo sapiens, UniProt Q8IW41)
T2 sequence (Q8IW41 whole entry): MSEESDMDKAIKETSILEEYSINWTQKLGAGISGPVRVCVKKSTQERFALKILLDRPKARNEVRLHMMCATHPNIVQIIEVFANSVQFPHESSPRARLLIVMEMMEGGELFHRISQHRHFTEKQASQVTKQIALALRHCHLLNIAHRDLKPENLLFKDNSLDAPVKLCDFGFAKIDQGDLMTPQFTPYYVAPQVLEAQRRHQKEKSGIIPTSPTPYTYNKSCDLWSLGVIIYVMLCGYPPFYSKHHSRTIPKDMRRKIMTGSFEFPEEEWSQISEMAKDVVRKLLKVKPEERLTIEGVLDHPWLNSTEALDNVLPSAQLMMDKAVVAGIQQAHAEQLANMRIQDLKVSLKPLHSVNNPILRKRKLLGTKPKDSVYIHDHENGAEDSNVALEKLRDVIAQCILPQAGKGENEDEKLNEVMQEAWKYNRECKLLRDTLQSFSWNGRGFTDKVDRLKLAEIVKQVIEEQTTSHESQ

[3] = molecular target: Tyrosine-protein kinase Fer (Homo sapiens, UniProt P16591)
[4] = molecular target: Inosine-5'-monophosphate dehydrogenase 2 (Homo sapiens, UniProt P12268)
[5] = molecular target: Calcium/calmodulin-dependent protein kinase type II subunit gamma (Homo sapiens, UniProt Q13555)
[6] = molecular target: T3, Delta(24)-sterol reductase (Homo sapiens, UniProt Q15392)
T3 sequence (Q15392 whole entry): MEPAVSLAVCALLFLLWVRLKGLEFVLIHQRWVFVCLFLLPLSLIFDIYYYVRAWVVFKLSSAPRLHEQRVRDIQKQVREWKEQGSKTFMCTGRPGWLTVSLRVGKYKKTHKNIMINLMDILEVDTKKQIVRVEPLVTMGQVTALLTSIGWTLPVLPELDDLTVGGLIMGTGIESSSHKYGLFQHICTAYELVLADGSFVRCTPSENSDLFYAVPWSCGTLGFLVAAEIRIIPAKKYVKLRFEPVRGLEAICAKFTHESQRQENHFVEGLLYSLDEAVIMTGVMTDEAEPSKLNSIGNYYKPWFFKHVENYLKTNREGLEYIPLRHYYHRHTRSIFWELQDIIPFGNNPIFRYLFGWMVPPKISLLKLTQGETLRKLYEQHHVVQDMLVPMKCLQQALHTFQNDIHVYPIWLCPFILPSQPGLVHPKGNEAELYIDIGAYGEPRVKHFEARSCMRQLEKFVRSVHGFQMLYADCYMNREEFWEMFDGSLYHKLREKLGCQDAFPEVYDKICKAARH

[7] = molecular target: T4, Serine/threonine-protein kinase D3 (Homo sapiens, UniProt O94806)
T4 sequence (O94806 whole entry): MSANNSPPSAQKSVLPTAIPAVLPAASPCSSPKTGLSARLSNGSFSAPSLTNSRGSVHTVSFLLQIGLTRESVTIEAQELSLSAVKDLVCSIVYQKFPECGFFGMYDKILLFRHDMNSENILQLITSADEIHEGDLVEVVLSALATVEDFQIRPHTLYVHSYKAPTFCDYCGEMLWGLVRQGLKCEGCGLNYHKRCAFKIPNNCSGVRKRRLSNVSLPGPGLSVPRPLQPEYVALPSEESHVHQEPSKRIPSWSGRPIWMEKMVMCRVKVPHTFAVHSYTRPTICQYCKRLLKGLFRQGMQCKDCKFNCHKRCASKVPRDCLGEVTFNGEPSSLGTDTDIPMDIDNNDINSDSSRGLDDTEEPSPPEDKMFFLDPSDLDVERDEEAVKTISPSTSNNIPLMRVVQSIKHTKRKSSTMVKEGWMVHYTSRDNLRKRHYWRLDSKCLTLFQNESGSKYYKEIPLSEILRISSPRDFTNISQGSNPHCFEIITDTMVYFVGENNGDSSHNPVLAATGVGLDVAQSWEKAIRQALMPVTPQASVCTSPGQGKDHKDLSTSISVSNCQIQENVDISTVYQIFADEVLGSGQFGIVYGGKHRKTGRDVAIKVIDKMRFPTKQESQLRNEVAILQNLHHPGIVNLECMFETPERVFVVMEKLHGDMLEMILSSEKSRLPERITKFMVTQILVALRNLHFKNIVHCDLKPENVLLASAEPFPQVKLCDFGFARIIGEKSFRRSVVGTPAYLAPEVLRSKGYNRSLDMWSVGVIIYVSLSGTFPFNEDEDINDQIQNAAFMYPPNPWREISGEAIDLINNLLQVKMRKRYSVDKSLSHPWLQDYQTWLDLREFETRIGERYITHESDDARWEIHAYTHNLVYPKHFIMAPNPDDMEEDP

[8] = molecular target: Calcium/calmodulin-dependent protein kinase type II subunit delta (Homo sapiens, UniProt Q13557)
[9] = molecular target: Adenosine kinase (Homo sapiens, UniProt P55263)
[10] = molecular target: Cyclin-dependent kinase 17 (Homo sapiens, UniProt Q00537)
Also: in the data inactive means no Kd found up to 30 µM.

Sequence of Calcium/calmodulin-dependent protein kinase type II subunit gamma (Q13555 whole entry): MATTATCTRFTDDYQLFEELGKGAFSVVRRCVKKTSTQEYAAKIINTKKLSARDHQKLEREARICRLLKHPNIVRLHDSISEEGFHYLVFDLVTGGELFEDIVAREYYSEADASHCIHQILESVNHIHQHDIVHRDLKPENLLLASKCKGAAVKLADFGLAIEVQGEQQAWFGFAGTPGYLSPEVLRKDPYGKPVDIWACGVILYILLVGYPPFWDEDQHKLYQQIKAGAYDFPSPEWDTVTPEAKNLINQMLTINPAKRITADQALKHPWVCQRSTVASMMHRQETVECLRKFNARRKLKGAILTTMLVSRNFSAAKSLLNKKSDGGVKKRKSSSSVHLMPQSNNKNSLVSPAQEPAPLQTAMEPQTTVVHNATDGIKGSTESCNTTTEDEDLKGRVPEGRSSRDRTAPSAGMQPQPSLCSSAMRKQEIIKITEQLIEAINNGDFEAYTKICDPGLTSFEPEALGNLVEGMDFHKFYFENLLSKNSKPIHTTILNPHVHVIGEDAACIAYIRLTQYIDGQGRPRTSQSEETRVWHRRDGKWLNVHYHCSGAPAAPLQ
Sequence of Calcium/calmodulin-dependent protein kinase type II subunit delta (Q13557 whole entry): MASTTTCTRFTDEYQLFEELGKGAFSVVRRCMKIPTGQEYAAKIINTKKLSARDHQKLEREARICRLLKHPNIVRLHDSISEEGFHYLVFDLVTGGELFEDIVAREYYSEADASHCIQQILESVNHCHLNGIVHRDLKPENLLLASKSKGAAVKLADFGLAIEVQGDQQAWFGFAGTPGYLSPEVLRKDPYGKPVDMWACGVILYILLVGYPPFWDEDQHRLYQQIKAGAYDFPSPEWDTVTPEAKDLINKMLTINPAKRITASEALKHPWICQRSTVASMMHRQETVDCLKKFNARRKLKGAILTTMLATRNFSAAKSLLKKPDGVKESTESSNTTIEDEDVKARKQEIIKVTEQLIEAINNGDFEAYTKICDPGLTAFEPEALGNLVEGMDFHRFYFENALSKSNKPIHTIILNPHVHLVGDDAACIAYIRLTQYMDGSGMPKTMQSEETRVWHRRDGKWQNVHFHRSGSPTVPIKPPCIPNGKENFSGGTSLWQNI
Sequence of Tyrosine-protein kinase Fer (P16591 whole entry): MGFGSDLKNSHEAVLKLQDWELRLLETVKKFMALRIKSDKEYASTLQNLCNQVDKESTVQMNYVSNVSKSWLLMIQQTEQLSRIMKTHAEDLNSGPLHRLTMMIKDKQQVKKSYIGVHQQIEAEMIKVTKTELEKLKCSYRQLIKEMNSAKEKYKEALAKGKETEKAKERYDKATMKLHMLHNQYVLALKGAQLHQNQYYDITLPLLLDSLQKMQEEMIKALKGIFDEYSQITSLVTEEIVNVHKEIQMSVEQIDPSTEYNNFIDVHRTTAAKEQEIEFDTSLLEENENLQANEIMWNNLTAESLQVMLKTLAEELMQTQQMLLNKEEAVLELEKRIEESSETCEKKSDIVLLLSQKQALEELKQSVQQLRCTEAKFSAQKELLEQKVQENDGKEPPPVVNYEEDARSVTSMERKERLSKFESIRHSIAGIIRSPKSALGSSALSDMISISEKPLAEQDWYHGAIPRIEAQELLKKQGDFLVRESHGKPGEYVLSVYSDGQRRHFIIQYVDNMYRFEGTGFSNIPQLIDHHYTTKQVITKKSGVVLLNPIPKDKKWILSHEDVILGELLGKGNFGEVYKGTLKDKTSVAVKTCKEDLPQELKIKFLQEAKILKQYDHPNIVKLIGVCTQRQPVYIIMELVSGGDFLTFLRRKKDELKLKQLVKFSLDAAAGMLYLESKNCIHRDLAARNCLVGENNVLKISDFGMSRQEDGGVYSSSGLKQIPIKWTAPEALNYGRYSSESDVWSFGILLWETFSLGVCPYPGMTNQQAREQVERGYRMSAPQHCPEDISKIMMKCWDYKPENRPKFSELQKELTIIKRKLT
Sequence of Adenosine kinase (P55263 whole entry): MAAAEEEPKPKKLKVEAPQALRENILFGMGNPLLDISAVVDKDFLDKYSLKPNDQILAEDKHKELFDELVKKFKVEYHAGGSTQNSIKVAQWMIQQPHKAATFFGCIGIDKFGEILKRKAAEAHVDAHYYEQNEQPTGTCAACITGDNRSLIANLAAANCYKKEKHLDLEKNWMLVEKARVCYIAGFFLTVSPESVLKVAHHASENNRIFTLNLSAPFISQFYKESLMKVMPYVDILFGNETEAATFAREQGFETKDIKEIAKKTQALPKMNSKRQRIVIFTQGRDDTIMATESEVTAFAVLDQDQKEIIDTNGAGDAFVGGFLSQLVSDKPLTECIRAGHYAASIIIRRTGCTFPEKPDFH
Sequence of Cyclin-dependent kinase 17 (Q00537 whole entry): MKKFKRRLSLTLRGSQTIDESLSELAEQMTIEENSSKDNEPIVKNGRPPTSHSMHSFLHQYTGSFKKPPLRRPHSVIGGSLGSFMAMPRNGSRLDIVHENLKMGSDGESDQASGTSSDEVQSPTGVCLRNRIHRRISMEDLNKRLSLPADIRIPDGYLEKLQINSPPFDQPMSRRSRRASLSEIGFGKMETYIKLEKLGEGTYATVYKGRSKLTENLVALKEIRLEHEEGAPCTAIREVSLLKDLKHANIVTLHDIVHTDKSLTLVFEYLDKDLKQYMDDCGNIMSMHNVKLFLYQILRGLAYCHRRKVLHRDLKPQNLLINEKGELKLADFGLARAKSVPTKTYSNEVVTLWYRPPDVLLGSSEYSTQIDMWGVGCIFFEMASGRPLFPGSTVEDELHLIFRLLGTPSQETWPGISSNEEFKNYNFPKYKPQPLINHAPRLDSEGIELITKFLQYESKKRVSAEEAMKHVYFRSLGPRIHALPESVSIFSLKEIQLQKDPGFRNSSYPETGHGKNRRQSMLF

Kd [1] | Kd [2] | Kd [3] | Kd [4] | Kd [5] | Kd [6] | Kd [7] | Kd [8] | Kd [9] | Kd [10] | Structure (SMILES)
> 30 µM (inactive) | > 30 µM (inactive) | > 30 µM (inactive) |  | > 30 µM (inactive) | > 30 µM (inactive) | > 30 µM (inactive) | > 30 µM (inactive) | > 30 µM (inactive) | > 30 µM (inactive) | Nc1ncnc2c1c(-c1cccc(OCc3ccccc3)c1)cn2[C@H]1C[C@@H](CN2CCC2)C1 [AEW-541]
> 30 µM (inactive) | > 30 µM (inactive) | > 30 µM (inactive) |  | > 30 µM (inactive) | > 30 µM (inactive) | > 30 µM (inactive) | > 30 µM (inactive) | > 30 µM (inactive) | > 30 µM (inactive) | COc1ccc(S(=O)(=O)N(C(C)=O)c2ccccc2/C=C/c2cc[n+]([O-])cc2)cc1 [HMN-214]
0.21 µM (active) | > 30 µM (inactive) | 0.802 µM (active) |  | 0.275 µM (active) | > 30 µM (inactive) | 0.268 µM (active) |  | > 30 µM (inactive) | 0.014 µM (active) | Cc1nc(Nc2n[nH]c3c2CN(C(=O)N[C@H](CN(C)C)c2ccccc2)C3(C)C)c2sccc2n1 [PF-03758309]
> 30 µM (inactive) | > 30 µM (inactive) | > 30 µM (inactive) | > 30 µM (inactive) | > 30 µM (inactive) | > 30 µM (inactive) |  | > 30 µM (inactive) | > 30 µM (inactive) | > 30 µM (inactive) | C[C@@H](N)c1ccc(C(=O)Nc2ccnc3[nH]ccc23)cc1 [Y-39983]

Further lines, the compound ahead of its results:

Structure (SMILES) | Kd [1] | Kd [2] | Kd [3] | Kd [4] | Kd [5] | Kd [6] | Kd [7] | Kd [8] | Kd [9] | Kd [10]
C[C@@H](Oc1cc(C(=O)Nc2ccc(C(=O)N3CCN(C)CC3)cc2)nnc1N)c1c(Cl)ccc(F)c1Cl | > 30 µM (inactive) | > 30 µM (inactive) | > 30 µM (inactive) | > 30 µM (inactive) | > 30 µM (inactive) | > 30 µM (inactive) | > 30 µM (inactive) | > 30 µM (inactive) |  | 
Cc1nc(NC(=O)N2CCC[C@H]2C(N)=O)sc1-c1ccnc(C(C)(C)C(F)(F)F)c1 [ALPELISIB] | > 30 µM (inactive) | > 30 µM (inactive) | > 30 µM (inactive) | > 30 µM (inactive) | > 30 µM (inactive) | > 30 µM (inactive) | > 30 µM (inactive) | > 30 µM (inactive) | > 30 µM (inactive) | 
C=CC(=O)Nc1cc2c(Nc3ccc(F)c(Cl)c3)ncnc2cc1C#CC(C)(C)N1CCN(C)CC1 [AV-412 FREE BASE] | > 30 µM (inactive) | > 30 µM (inactive) | > 30 µM (inactive) | > 30 µM (inactive) | > 30 µM (inactive) | > 30 µM (inactive) | > 30 µM (inactive) | > 30 µM (inactive) | > 30 µM (inactive) | 
Cc1cc(Nc2ncc(Cl)c(Nc3ccccc3S(=O)(=O)C(C)C)n2)c(OC(C)C)cc1C1CCNCC1 [CERITINIB] | > 30 µM (inactive) | > 30 µM (inactive) | 0.214 µM (active) |  | > 30 µM (inactive) | > 30 µM (inactive) | > 30 µM (inactive) | > 30 µM (inactive) | > 30 µM (inactive) | > 30 µM (inactive)
CNC(=O)c1nn(C)c2c1C(C)(C)Cc1cnc(Nc3ccc(N4CCN(C)CC4)cc3)nc1-2 [MILCICLIB] | > 30 µM (inactive) | > 30 µM (inactive) | > 30 µM (inactive) |  | > 30 µM (inactive) | > 30 µM (inactive) | 0.135 µM (active) | > 30 µM (inactive) | > 30 µM (inactive) | 
FC(F)(F)c1ccc(/C=C/c2nc(COc3ccc(CCCCn4ccnn4)cc3)co2)cc1 [MUBRITINIB] | > 30 µM (inactive) | > 30 µM (inactive) | > 30 µM (inactive) |  | > 30 µM (inactive) | > 30 µM (inactive) | > 30 µM (inactive) | > 30 µM (inactive) | > 30 µM (inactive) | > 30 µM (inactive)
Cn1ncc(Cl)c1-c1cc(C(=O)N[C@H](CN)Cc2ccc(F)c(F)c2)oc1Cl [UPROSERTIB] | > 30 µM (inactive) | > 30 µM (inactive) | > 30 µM (inactive) | > 30 µM (inactive) | > 30 µM (inactive) | > 30 µM (inactive) | 2.64 µM (active) | > 30 µM (inactive) | > 30 µM (inactive) | 

From ChEMBL document CHEMBL3991601, “The target landscape of clinical kinase drugs” (Science, 2017)
